From patent US5648336A (University of Colorado, priority 1994, dated 1997)
Like-named read-outs stand apart in the source and are kept apart here. Square brackets hold non-standard residues; d marks the D form. Peptide text beside a SMILES is read from it. Oic = O=C(O)[C@@H]1C[C@@H]2CCCC[C@@H]2N1; dIgl = N[C@@H](C(=O)O)C1Cc2ccccc2C1; Igl = N[C@H](C(=O)O)C1Cc2ccccc2C1; Hyp = O=C(O)[C@@H]1C[C@@H](O)CN1; NMeF = CN[C@@H](Cc1ccccc1)C(=O)O; 2Thi = N[C@@H](Cc1cccs1)C(=O)O

What was measured:
guinea pig ileum = tested on: guinea pig ileum
Text: (§1) A change of one unit of pA2 value represents an order of magnitude change in potency.
(§2) On isolated smooth muscles, agonist potency is given as percent of BK potency; antagonist potency is given as pA2, and is underlined. In blood pressure assays, the number is the dose of peptide in micrograms that causes 50% reduction in the effect of BK intraarterially administered as a bolus mixture in a 500 g male rat; Ag indicates unquantitated agonist activity; Ant indicates unquantitated antagonist activity.

isolated rat uterus = tested on: isolated rat uterus
Text: as §1, §2

B1 receptors = target: T1, B1 receptors (Oryctolagus cuniculus, UniProt P48748); test: B1 receptor bioassay, rabbit aorta strips contracted with des-Arg9-BK; assay type: cell-based; settings: 50% reduction of sustained contraction to 10^-7 M des-Arg9-BK; read-out: Rabbit Aorta p IC50 B1 receptors (converted)
T1 construct: The thorax was opened and the thoracic aorta carefully removed; from tissue; host or cells: rabbit thoracic aorta spiral strips
T1 sequence (P48748 1-352): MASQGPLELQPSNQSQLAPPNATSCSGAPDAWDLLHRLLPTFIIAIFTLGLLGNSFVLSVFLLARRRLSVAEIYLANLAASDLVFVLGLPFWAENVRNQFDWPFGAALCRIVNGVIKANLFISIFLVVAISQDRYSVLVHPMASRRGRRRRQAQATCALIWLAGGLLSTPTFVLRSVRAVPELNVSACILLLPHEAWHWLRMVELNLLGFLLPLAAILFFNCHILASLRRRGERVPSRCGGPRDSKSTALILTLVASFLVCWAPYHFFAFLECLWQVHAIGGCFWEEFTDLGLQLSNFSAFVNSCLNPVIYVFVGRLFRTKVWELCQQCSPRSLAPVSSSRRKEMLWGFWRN
Protocol: Male New Zealand white rabbits, weight range 2-3 kg, were killed by an overdose of pentobarbital i.v. The thorax was opened and the thoracic aorta carefully removed. […] The tissues were placed under 1 gm isometric tension and allowed to equilibrate for 1H. At time 1h, a concentration-effect curve was constructed to the selective B1 agonist des-Arg^9 -BK. This was repeated at time 3 hours. […] Once the contraction was sustained, the compound to be assayed was applied to the tissue bath in a cumulative manner. The concentration of the compound which produced a 50% reduction of the sustained contraction was calculated. The negative logarithm of this concentration was calculated and expressed as the […].

Human B2 receptors = target: T2, Human B2 receptors (Homo sapiens, UniProt P30411); test: Human B2 binding, cloned receptor in CHO cell membranes, 3H-bradykinin
T2 construct: expressed in transfected cells; membranes used
T2 sequence (P30411 1-364 isoform P30411-2): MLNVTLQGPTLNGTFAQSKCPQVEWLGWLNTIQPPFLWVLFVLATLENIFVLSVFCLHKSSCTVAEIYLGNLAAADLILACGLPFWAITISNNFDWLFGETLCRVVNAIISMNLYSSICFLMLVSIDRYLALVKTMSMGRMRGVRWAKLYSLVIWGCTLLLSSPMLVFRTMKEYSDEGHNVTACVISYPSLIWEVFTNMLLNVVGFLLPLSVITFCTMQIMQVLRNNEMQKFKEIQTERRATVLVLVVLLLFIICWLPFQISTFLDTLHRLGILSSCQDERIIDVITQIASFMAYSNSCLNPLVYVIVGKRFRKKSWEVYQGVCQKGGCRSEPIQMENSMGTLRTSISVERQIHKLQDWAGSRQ
Text: Human B2 receptors were cloned and expressed in Chinese hamster ovary cells. RNA was isolated from human lung fibroblasts (CCD-16 LU obtained from the ATCC) using the method of Chirgwin et al (Biochemistry 18:5294 (1979)). The RNA was transcribed into cDNA using MMLV reverse transcriptase, the primer […] and the procedure of Maniatis (Molecular Cloning Cold Spring Harbor Laboratory (1982)). The human B2 receptor cDNA was selectively amplified using nested PCR. The first round PCR used the two primers […] and […] and Taq DNA polymerase (Promega). Twenty-five rounds of PCR were done using the following conditions: 94° C., 1 minute for denaturation, 50° C., 1 minute for annealing followed by 72° C., 3 minutes for extension. Excess primers were removed with a Centricon 30 miniconcentrator. A portion of this first round reaction was used as a template in a second round of PCR using the following primers […] and […]. The number of rounds of PCR and the conditions were the same as those used for the first round. The DNA obtained after this second round was digested with the restriction enzymes Hind III and Xba I using standard methodology. Cesium chloride-purified pRc/CMV (Invitrogen) was also digested with Hind III and Xba I using standard methodology. The products of the two digests were resolved on a 1% low melt agarose gel. The human B2 receptor DNA (approximately 1.1 kb) and the pRc/CMV DNA (approximately 5.5 kb) were excised from the gel. The gel slices containing these DNAs were heated at 65° C. and aliquots combined in a reaction containing T4 DNA ligase. The reaction was incubated overnight at 15° C.
An aliquot of this reaction was used to transform frozen competent E. coli DH5α cells (GibcoBRL). Transformants containing the human B2 receptor DNA were selected on LB+amp plates. One of the transformants was selected and the sequence of the human B2 receptor DNA insert determined using the Sequenase enzyme (United States Biochemical) according to the manufacturer's instructions. This sequence was compared to the sequence of Hess et al (Biochemical and Biophysical Research Communications 184:260 1992)). […] The human BK2 receptor-pRc/CMV plasmid was transfected into CHO-k1 cells using the Lipofectamine reagent (GibcoBRL).
Cells containing the receptor were grown to confluence and harvested by scraping into PBS and homogenized. Membranes were prepared by centrifugation in 25 mM TES pH6.8 containing 1 mM 1.10 Phenanthroline. The final pellet was resuspended in assay buffer (25 mM TES, 1 mM 1.10 Phenanthroline, 1 mM DTT, […] Captopril, 0.1% BSA pH=6.8) and frozen. […] Incubation was carried out at room temperature for 45 min. The assay was terminated by filtration through a polyethylenimine soaked G-A filter. Radioactivity was measured on a Wallac 1450 MicroBeta LSC.
The Kd for the receptor was determined by kinetic analysis of on and off rates utilizing a single exponential decay off rate. Ki 's for compounds were calculated using the following equation: Ki =IC50 /(1+[L]/Kd), where L=free ligand concentration.

[1] = CHO clone S34f membranes, 0.3 nM 3H-Bradykinin, room temperature 45 min, read-out: Human Receptor Clone B2 receptor binding (Ki) (converted)

| SMILES | Ileum Activity, antagonist potency given as pA2 (guinea pig ileum) | Uterus Activity, antagonist potency given as pA2 (isolated rat uterus) | IC50 (B1 receptors) | Ki (Human B2 receptors; [1]) | Ki (Human B2 receptors) |
| --- | --- | --- | --- | --- | --- |
| N=C(N)NCCC[C@H](NC(=O)[C@@H]1C[C@@H]2CCCC[C@@H]2N1C(=O)[C@H](NC(=O)[C@H](CO)NC(=O)[C@@H](NC(=O)CNC(=O)[C@@H]1C[C@@H](O)CN1C(=O)[C@@H]1CCCN1C(=O)[C@H](CCCNC(=N)N)NC(=O)[C@@H](CCCNC(=N)N)NC(=O)C12CC3CC(CC(C3)C1)C2)C1Cc2ccccc2C1)C1Cc2ccccc2C1)C(=O)O [Compound 2, Aca-DArg-Arg-Pro-Hyp-Gly-Iglb-Ser-DIg lb-Oic-Arg] | 7.8 | 7.5 | 1780 nM | 0.0447 nM |  |
| N=C(N)NCCC[C@H](NC(=O)[C@@H]1C[C@@H]2CCCC[C@@H]2N1C(=O)[C@H](NC(=O)[C@H](CO)NC(=O)[C@@H](NC(=O)CNC(=O)[C@@H]1C[C@@H](O)CN1C(=O)[C@@H]1CCCN1C(=O)[C@H](CCCNC(=N)N)NC(=O)[C@@H](CCCNC(=N)N)NC(=O)C1=CN2CCC1CC2)C1Cc2ccccc2C1)C1Cc2ccccc2C1)C(=O)O [Compound 3, Dhg-DArg-Arg-Pro-Hyp-Gly-Iglb-Ser-DIg lb-Oic-Arg] | 7.6 | 7.4 | 1170 nM | 0.00141 nM |  |
| N=C(N)NCCC[C@H](NC(=O)[C@@H]1C[C@@H]2CCCC[C@@H]2N1C(=O)[C@H](NC(=O)[C@H](CO)NC(=O)[C@H](Cc1cccs1)NC(=O)CNC(=O)[C@@H]1C[C@@H](O)CN1C(=O)[C@@H]1CCCN1C(=O)[C@@H](N)CCCNC(=N)N)C1Cc2ccccc2C1)C(=O)O [Compound 5, Arg-Pro-Hyp-Gly-Thi-Ser-DIglb-Oic-Arg] (H-RP[Hyp]G[2Thi]S[dIgl][Oic]R-OH) | 7.7 |  | 1550 nM | 0.0692 nM |  |
| N=C(N)NCCC[C@@H](N)C(=O)N[C@@H](CCCNC(=N)N)C(=O)N1CCC[C@H]1C(=O)N1C[C@H](O)C[C@H]1C(=O)NCC(=O)N[C@@H](Cc1cccs1)C(=O)N[C@@H](CO)C(=O)N(CC(=O)N1[C@H](C(=O)N[C@@H](CCCNC(=N)N)C(=O)O)C[C@@H]2CCCC[C@@H]21)C1Cc2ccccc2C1 [Compound 16, DArg-Arg-Pro-Hyp-Gly-Thi-Ser-Nigb-Oic-Arg] | 7.0 | 6.8 |  | 0.309 nM |  |
| N=C(N)NCCC[C@@H](N)C(=O)N[C@@H](CCCNC(=N)N)C(=O)N1CCC[C@H]1C(=O)N1C[C@H](O)C[C@H]1C(=O)NCC(=O)N[C@@H](Cc1cccs1)C(=O)N[C@@H](CO)C(=O)N[C@@H](C(=O)N1Cc2ccccc2C[C@H]1C(=O)N[C@@H](CCCNC(=N)N)C(=O)O)C1Cc2ccccc2C1 [Compound 22, DArg-Arg-Pro-Hyp-Gly-Thi-Ser-DIglb-Tic-Arg] | 6.8 | 7.0 | 1780 nM | 0.0126 nM |  |
| N=C(N)NCCC[C@@H](N)C(=O)N[C@@H](CCCNC(=N)N)C(=O)N1CCC[C@H]1C(=O)N1C[C@H](O)C[C@H]1C(=O)NCC(=O)N[C@@H](Cc1cccs1)C(=O)N[C@@H](CO)C(=O)N1Cc2ccccc2C[C@@H]1C(=O)N(CC(=O)N[C@@H](CCCNC(=N)N)C(=O)O)C1Cc2ccccc2C1 [Compound 23, DArg-Arg-Pro-Hyp-Gly-Thi-Ser-DTic-Nigb-Arg] | 7.2 | 8.3 | > 10000 nM | 0.0158 nM |  |
| Cc1ccc(C[C@@H](NC(=O)CNC(=O)[C@@H]2C[C@@H](O)CN2C(=O)[C@@H]2CCCN2C(=O)[C@H](CCCNC(=N)N)NC(=O)[C@H](N)CCCNC(=N)N)C(=O)N[C@@H](CO)C(=O)N[C@@H](C(=O)N2[C@H](C(=O)N[C@@H](CCCNC(=N)N)C(=O)O)C[C@@H]3CCCC[C@@H]32)C2Cc3ccccc3C2)c(C)c1 [Compound 27, DArg-Arg-Pro-Hyp-Gly-DDMF-Ser-DIglb-Oic-Arg] | 6.9 | 8.0 | > 10000 nM | 0.178 nM |  |
| N=C(N)NCCC[C@@H](N)C(=O)N[C@@H](CCCNC(=N)N)C(=O)N1CCC[C@H]1C(=O)N1C[C@H](O)C[C@H]1C(=O)NCC(=O)N[C@H](Cc1cccs1)C(=O)N[C@@H](CO)C(=O)N[C@@H](C(=O)N1[C@H](C(=O)N[C@@H](CCCNC(=N)N)C(=O)O)C[C@@H]2CCCC[C@@H]21)C1Cc2ccccc2C1 [Compound 31, DArg-Arg-Pro-Hyp-Gly-DThi-Ser-DIglb-Oic-Arg] |  |  | > 10000 nM |  | 0.01 nM |
| CN(C(=O)[C@H](CCCNC(=N)N)NC(=O)[C@H](N)CCCNC(=N)N)[C@@H](Cc1ccccc1)C(=O)N1C[C@H](O)C[C@H]1C(=O)NCC(=O)N[C@H](C(=O)N[C@@H](CO)C(=O)N[C@@H](C(=O)N1[C@H](C(=O)N[C@@H](CCCNC(=N)N)C(=O)O)C[C@@H]2CCCC[C@@H]21)C1Cc2ccccc2C1)C1Cc2ccccc2C1 [Compound 45, DArg-Arg-NMF-Hyp-Gly-Iglb-Ser-DIglb-Oic-Arg] (H-[dR]R[NMeF][Hyp]G[Igl]S[dIgl][Oic]R-OH) |  |  | 2880 nM | 0.141 nM |  |
| N=C(N)NCCC[C@H](NC(=O)[C@@H]1C[C@@H]2CCCC[C@@H]2N1C(=O)[C@H](NC(=O)[C@H](COS(=O)(=O)O)NC(=O)[C@H](Cc1cccs1)NC(=O)CNC(=O)[C@@H]1C[C@@H](O)CN1C(=O)[C@@H]1CCCN1C(=O)[C@H](CCCNC(=N)N)NC(=O)[C@@H](CCCNC(=N)N)NC(=O)C12CC3CC(CC(C3)C1)C2)C1Cc2ccccc2C1)C(=O)O [Compound 61, Aca-DArg-Arg-Pro-Hyp-Gly-Thi-Ser(SO)-DIglb-Oic-Arg] | 7.5 |  | 4170 nM | 4.07 nM |  |
